Laboratory results taken from article PMC8638259 (Biochemistry, 2021).
Several values for one entry are separate records, joined by “and”; a condition that tells them apart may be missing. Equal entries are not always repeated. Entries after “also recorded” stand apart in the source; their conditions may differ. Where two headings read alike, the source gives them in different places. Marks after values point to notes of the source that are not given here. One block for each compound: values may come before it.

Columns and labels:
[1] = target: Mat2B (Homo sapiens) (UniProt Q9NZL9); settings: cited from earlier work
[2] = target: T1, human Mat2A (Homo sapiens, UniProt P31153); test: MESG EnzChek coupled phosphate detection assay (assay 1), Mat2A initial rates; type: biochemical; set-up: key to type of inhibition (product inhibition) / inhibition pattern (dead-end inhibition): U indicates uncompetitive inhibition; NC indicates noncompetitive inhibition; settings: for Km: average of five independent experiments ± SD
T1 construct: His6 (N, cleaved yes); TEV protease cleavage site (N, cleaved yes); made in house; host or cells: E. coli BL21 STAR (DE3)

[3] = target: T2, Mat2A/Mat2B complex (Homo sapiens, UniProt P31153); test: Coupled phosphate detection assay (assay 1) with the Mat2A/Mat2B complex; type: biochemical; settings: for Km: Mat2A + Mat2B (250 nM Mat2A, 600 nM Mat2B), pH 7.5, 22 °C
T2 construct: His6 (N, cleaved yes); TEV protease cleavage site (N, cleaved yes); made in house; host or cells: E. coli BL21 STAR (DE3)

[4] = test system: T3, Mat2A; settings: cited from earlier work
T3 construct: His6 (N, cleaved yes); TEV protease cleavage site (N, cleaved yes); made in house; host or cells: E. coli BL21 STAR (DE3)

[5] = test system: Mat2A + Mat2B; set-up: method as in PMID 28553945; settings: after addition of Mat2B, cited from earlier work
[6] = target: T1, human Mat2A; test: LC-MS SAM detection assay (assay 2), Mat2A initial rates; type: biochemical; set-up: key to type of inhibition (product inhibition by phosphate): U indicates uncompetitive inhibition; NC indicates noncompetitive inhibition; settings: pH 7.5, 22 °C; for Km: Mat2A only, single experiment, three replicates ± SE; for Ki: read-out: inhibition constant Kis (product inhibition by phosphate)
Description: In all cases, initial velocities were obtained from the linear regions of the reaction progress curves (<200 s, Figures S3C and S5).
The LC–MS assay monitors SAM directly and was developed to confirm the kinetic parameters that were obtained in the phosphate coupled assay and to carry out product inhibition studies by Pi, which was not possible using the phosphate coupled assay. The amount of SAM produced was quantified using a standard curve (Figure S3F). Prior to LC–MS, 1:1 methanol/acetonitrile + 0.1% (v/v) formic acid was added to the samples. LC–MS was performed using an Agilent 1200 LC system fitted with a Cogent Diamond Hydride Type C silica column (2.1 × 150 mm, dead volume 315 μL). Solvent A was LC–MS grade H2O + 0.1% (v/v) formic acid. Solvent B was acetonitrile + 0.1% (v/v) formic acid. The gradient started at 85% B dropping to 5% B over 14 min. Flow rate was 0.4 mL/min. Mass spectrometry was performed using an Agilent Accurate Mass 6230 TOF apparatus in positive-ion mode. The doubly charged SAM ion was detected at an m/z of 200.0759.
Product and dead-end inhibition data showing competitive, noncompetitive, or uncompetitive patterns were fitted to eqs 2–4, respectively. [drawing 2] 2 [drawing 3] 3 [drawing 4] 4 where I is the inhibitor concentration; S is the concentration of the variable substrate; Km is the Michaelis constant for the variable substrate; and Kis and Kii are the slope and intercept inhibition constants, respectively.
Saturation kinetics data were fitted to eq 5. [drawing 5] 5

[7] = target: T1, human Mat2A; test: Isothermal titration calorimetry (ITC) binding to Mat2A; settings: for binding to Mat2A (ITC): in the absence of ATP
Protocol: Prior to performing ITC, proteins (approximately 1 mL volume) were dialyzed using D-Tube Dialyzers (Maxi 100–3000 μL, MWCO 6–8 kDa) (Novagen) against 1 L of buffer A for 2–4 h at 4 °C with agitation using a magnetic stirring bar. […] Titrations were performed at 20 °C. Protein concentrations were determined by A280 using a UV-2550 spectrophotometer. The protein and ligand concentrations that were used are indicated in the legends of Figures 5 and 6. ITC measurements were performed on a MicroCal PEAQ-ITC calorimeter (Malvern Panalytical). Data were analyzed using the MicroCal PEAQ-ITC analysis software supplied by the manufacturer using nonlinear regression with the One Set of Sites model. For each experiment, the heat produced or consumed associated with ligand dilution was measured and subtracted from the raw data.

[8] = test system: T3, Mat2A; test: Stability assay: Mat2A activity after preincubation at 37 °C; type: biochemical, human
[9] = target: T2, Mat2A/Mat2B complex; test: Kinetic constants of Mat2A/Mat2B complex after preincubation at 37 °C; type: biochemical; settings: 60 nM Mat2A + 30 nM Mat2B preincubated 15 min at 37 °C; assay at pH 7.5, 22 °C; ATP 1.25 mM; read-out: Km(L-Met)
[10] = saturating Mat2B, ATP varied, saturating L-Met 600 μM
[11] = variable substrate ATP, saturating L-Met 0.6 mM
[12] = variable substrate L-Met, saturating ATP 0.5 or 1 mM

Compound: Mat1A (from UniProt Q00266)
Kd [1]: 3 µM

type of inhibition (product inhibition) ([2]; variable substrate ATP, nonsaturating L-Met (0.02 mM), pH 7.5, 22 °C): NC ^c
Ki ([2]; variable substrate ATP, nonsaturating L-Met (0.02 mM), pH 7.5, 22 °C, read-out: inhibition constant Kis (product inhibition)): 620 µM
type of inhibition (product inhibition) ([2]; variable substrate ATP, saturating L-Met 0.6 mM, pH 7.5, 22 °C): U ^b
type of inhibition (product inhibition) ([2]; variable substrate L-Met, nonsaturating ATP (0.07 mM), pH 7.5, 22 °C): NC ^c
Ki ([2]; variable substrate L-Met, nonsaturating ATP (0.07 mM), pH 7.5, 22 °C, read-out: inhibition constant Kis (product inhibition)): 250 µM
type of inhibition (product inhibition) ([2]; variable substrate L-Met, saturating ATP 0.5 or 1 mM, pH 7.5, 22 °C): NC ^b
Ki ([2]; variable substrate L-Met, saturating ATP 0.5 or 1 mM, pH 7.5, 22 °C, read-out: inhibition constant Kis (product inhibition)): 190 µM
Kii(SAM) [3, 10]: 130 ± 40 µM
type of inhibition by SAM [3, 10]: uncompetitive
increase in the potency of SAM inhibition in the presence of Mat2B ([3]; versus Mat2A alone): 1.8 fold
Compound: C[S+](CC[C@H](N)C(=O)[O-])C[C@H]1O[C@@H](n2cnc3c(N)ncnc32)[C@H](O)[C@@H]1O (stereo partly drawn) [SAM, S-adenosyl-L-methionine]
IC50 ([4]; without Mat2B, read-out: IC50 of product inhibition by SAM): ~300 µM
IC50 ([5]; read-out: IC50 of product inhibition by SAM): ~150 µM

Ki ([2]; Mat2A only, dissociation constant of enzyme-ATP complex from eq 1, pH 7.5, 22 °C, read-out: Ki(ATP)): 349 ± 66 µM
Km ([2]; Mat2A only, pH 7.5, 22 °C, read-out: Km(ATP)): 50 ± 10 µM
Km ([6]; read-out: Km(ATP)): 55 ± 10 µM
Kd [7]: 80 ± 30 µM
Km ([3]; read-out: Km(ATP)): 50 ± 5 µM
Compound: Nc1ncnc2c1ncn2[C@@H]1O[C@H](COP(=O)(O)OP(=O)(O)OP(=O)(O)O)[C@@H](O)[C@H]1O [ATP, adenosine 5′-triphosphate]

Compound: NC1(C(=O)O)CCCC1 [L-cLeu, L-cycloleucine, reference compound]
extent of inhibition of Mat2A [2]: fully inhibit
substrate activity for Mat2A [2]: not a substrate
inhibition pattern (dead-end inhibition) ([2]; variable substrate ATP, nonsaturating L-Met = 0.02 mM, pH 7.5, 22 °C): U
Ki ([2]; variable substrate L-Met, nonsaturating ATP = 0.07 mM, pH 7.5, 22 °C, read-out: inhibition constant Kis (dead-end inhibition)): 160 µM
Ki ([2]; variable substrate L-Met, saturating ATP = 1 mM, pH 7.5, 22 °C, read-out: inhibition constant Kis (dead-end inhibition)): 290 µM
binding to Mat2A (ITC) ([7]; ITC, 20 °C): no significant change in heat
binding to Mat2A (ITC) ([7]; ITC, 20 °C, listed as Cycloleucine): No binding
Kd ([7]; ITC, 20 °C, in the presence of 2 mM ATP): 25 ± 10 µM

inhibition constant Kii (product inhibition by phosphate) [6, 11]: Kii = 5740 ± 760 ^b μM
type of inhibition (product inhibition by phosphate) [6, 11]: NC ^b
Ki [6, 11]: 1290 µM
inhibition constant Kii (product inhibition by phosphate) [6, 12]: Kii = 4970 ± 770 ^b μM
type of inhibition (product inhibition by phosphate) [6, 12]: NC ^b
Ki [6, 12]: 1580 µM
Compound: O=P(O)(O)O [phosphate, inorganic phosphate]

Km ([2]; Mat2A only, pH 7.5, 22 °C, read-out: Km(L-Met)): 5 ± 2 µM
Km ([6]; read-out: Km(L-Met)): 8 ± 2 µM
Km ([3]; read-out: Km(L-Met)): 4 ± 1 µM
Km ([8]; Mat2A only (60 nM) preincubated 15 min at 37 °C, assay at pH 7.5, 22 °C, ATP 1.25 mM, read-out: Km(L-Met)): 3.5 ± 1.3 µM
Km [9]: 3.9 ± 0.1 µM
Compound: CSCC[C@H](N)C(=O)O [L-Met, L-methionine]
binding to Mat2A (ITC) ([7]; ITC, 20 °C): No significant change in heat; also recorded: No binding
Km ([4]; without Mat2B, read-out: Km for L-Met): 14 µM
Km ([5]; read-out: Km for L-Met): 2.5 µM

Compound: Mat2A: recombinant full-length human methionine adenosyltransferase Mat2A (UniProt P31153)
time to 50% loss of activity ([8]; 60 nM Mat2A preincubated in assay buffer at 37 °C, no substrates, no Mat2B): 2.3 min
kcat ([8]; Mat2A only (60 nM) preincubated 15 min at 37 °C, assay at pH 7.5, 22 °C): 0.09 ± 0.005 ^b s^–1
kcat reported by other groups ([4]; different assay methods): 0.27 s^–1 and 0.35 s^–1
